Results published in US8815940B2, “Coumarin-chalcones as anticancer agents” (Council of Scientific & Industrial Research, priority 2010, dated 2014).
Read-outs that look alike come from different tables or passages of the source.

Legend:
[1] = tested on: KB (oral squamous cell carcinoma); test: sulforhodamine B cell cytotoxicity assay, KB; format: cell-based; settings: Homo sapiens; Table 2; SRB assay, 48 h of exposure
Experimental: (§1) The human cancer cell lines—KB (oral squamous cell carcinoma). C33A (cervical carcinoma), MCF-7 (breast adenocarcinoma), A549 (lung carcinoma) and mouse embryo fibroblast (NIH3T3) were obtained from American Type Culture Collection (ATCC), USA. These cells were grown in recommended media supplemented with 10% FBS, 50 μg/mL gentamycin and 2.5 μg/mL amphotericin B in a 5% CO2 humidified atmosphere at 37° C. Cells below 15 passage level were used for this study. A colorimetric sulforhodamine B assay was used for the measurement of cell cytotoxicity. 1×10^4 cells (in 180 μL) were added to each well of 96-well plate and incubated overnight to allow for cell attachment. Cells were then treated with serial two-fold dilutions of test compounds (100 to 1.6 μM) and untreated cells receiving the same volume of medium served as control. After 48 h of exposure, cells were fixed with ice-cold 50% TCA, stained with 0.4% (w/v) SRB in 1% acetic acid, washed and air dried. Bound dye was dissolved in 150 μL of 10 mM tris base. The plates were read at 540 nm absorbance on plate reader (Polarstar Galaxy, BMG, Germany). The cytotoxic effects of compounds were calculated as % inhibition in cell growth as per the formula […].

[2] = tested on: C33A (cervical carcinoma); test: sulforhodamine B cell cytotoxicity assay, C33A; format: cell-based, human; settings: Homo sapiens, C-33-A, SRB assay, 48 h of exposure
Experimental: as §1

[3] = tested on: MCF-7 (breast adenocarcinoma); test: sulforhodamine B cell cytotoxicity assay, MCF-7; format: cell-based; settings: Homo sapiens, MCF7; Table 2; SRB assay, 48 h of exposure
Experimental: as §1

A549 (lung carcinoma) = test: sulforhodamine B cell cytotoxicity assay, A549; format: cell-based; settings: Homo sapiens, Table 2, SRB assay, 48 h of exposure
Experimental: as §1

[4] = tested on: mouse embryo fibroblast (NIH3T3); test: sulforhodamine B cell cytotoxicity assay, NIH3T3 non-cancer cells; format: cell-based; settings: 48 h of exposure
Experimental: as §1

[5] = tested on: HeLa Human cervical cancer cells; test: human tumor xenograft in SCID mice, tumor growth; format: in vivo; settings: ADR 2 mg/kg I.V. Q7dx3
Experimental: (§2) The in vivo efficacy studies were performed using human tumor xenografts in SCID mice. Human cervical cancer cells (HeLa) were injected subcutaneously (1×10^7 cells in 100 μl HBSS medium) on the right flank of each mouse. Tumor bearing mice were divided randomly into treatment groups and the treatment schedules began on day 7 of the xenograft. The test compound (S009-0131) was administered orally to each mouse at a daily dose of 100 mg/kg body weight, for 15 days. The standard anti-cancer drug Adriamycin (ADR) was used as ‘positive’ control and given to each mouse as an i.v. dose of 2 mg/kg body weight, Q7d×3 ([…]). The group of vehicle treated animals served as ‘negative’ control.
(§3) The tumor volume, body weight and signs of overt toxicity were monitored and recorded for the entire duration of the experiment (60 days). Tumor volumes were calculated using the formula (a×b2)/2, where a, b are two longest perpendicular diameters. Tumor growth was expressed in terms of relative tumor volume (RTV) which is the ratio of tumor volume on a particular day to the tumor volume on day 1 of the study. Tumor growth inhibition index (T/C) was calculated as follows: T/C=Average RTV of test group mice/Average RTV of control group mice.

[6] = animal weight and overt toxicity in the xenograft study; format: in vivo, SCID mice; settings: ADR 2 mg/kg I.V. Q7dx3
Experimental: as §2, §3

[7] = Table 2, read-out: IC50 C33A (Cervical)
[8] = Table 2, SRB assay, read-out: IC50 NIH3T3 (Non-cancer, fibroblast)
[9] = Table 1, read-out: IC50 C33A (cervical cancer)
[10] = Table 1, SRB assay, read-out: IC50 NIH3T3 (mouse fibroblast)

Structure (SMILES): CCNC(=O)c1cc2cc(/C=C/C(=O)c3ccc(C)cc3)cc(C(C)CC)c2oc1=O (centres unmarked) [Example S010-1995, (E)-8-sec-butyl-N-ethyl-2-oxo-6-(3-oxo-3-p-tolylprop-1-enyl)-2H-chromene-3-carboxamide]
- IC50 [1]: 10.7 µM
- IC50 [2, 7]: 5.56 µM
- IC50 [3]: 22.2 µM
- IC50 (A549 (lung carcinoma)): > 150 µM
- IC50 [4, 8]: > 150 µM
- melting point: 162 to 163 °C

Structure (SMILES): CCC(C)c1cc(/C=C/C(=O)c2ccc(C)cc2)cc2cc(C(=O)NC)c(=O)oc12 (centres unmarked) [Example S010-1994, (E)-8-sec-butyl-N-methyl-2-oxo-6-(3-oxo-3-p-tolylprop-1-enyl)-2H-chromene-3-carboxamide]
- melting point: 215 to 216 °C

Structure (SMILES): CCC(C)c1cc(C=CC(=O)c2ccc(Cl)cc2)cc2cc(C(=O)OC)c(=O)oc12 (centres unmarked) [Example S009-0136, Methyl 8-sec-butyl-6-(3-(4-chlorophenyl)-3-oxoprop-1-enyl)-2-oxo-2H-chromene-3-carboxylate]
- IC50 [1]: 28.2 µM
- IC50 [2, 7]: 5.9 µM
- IC50 [3]: 10.8 µM
- IC50 (A549 (lung carcinoma)): 16.7 µM
- IC50 [4, 8]: 42.4 µM
- melting point: 145 to 146 °C

Structure (SMILES): CCOC(=O)c1cc2cc(C=O)cc(C(C)CC)c2oc1=O (centres unmarked) [Example S009-0139, Ethyl 8-sec-butyl-6-formyl-2-oxo-2H-chromene-3-carboxylate]
- IC50 [1]: 132 µM
- IC50 [2, 9]: 64.3 µM
- IC50 [2, 7]: 64.3 µM
- IC50 [3]: 113 µM
- IC50 (A549 (lung carcinoma)): 147 µM
- IC50 [4, 10]: > 150 µM
- IC50 [4, 8]: > 150 µM
- melting point: 89 to 90 °C

Structure (SMILES): CCC(C)c1cc(C=CC(=O)c2ccccc2)cc2cc(C(=O)OC)c(=O)oc12 (centres unmarked) [Example S009-0133, Methyl 8-sec-butyl-2-oxo-6-(3-oxo-3-phenylprop-1-enyl)-2H-chromene-3-carboxylate]
- IC50 [1]: 13.4 µM
- IC50 [2, 7]: 6.28 µM
- IC50 [3]: 11.4 µM
- IC50 (A549 (lung carcinoma)): 10.7 µM
- IC50 [4, 8]: > 150 µM
- melting point: 139 to 140 °C

Structure (SMILES): CCOC(=O)c1cc2cc(C=CC(=O)c3ccc(Cl)cc3)cc(C(C)CC)c2oc1=O (centres unmarked) [Example S009-0135, Ethyl 8-sec-butyl-6-(3-(4-chlorophenyl)-3-oxoprop-1-enyl)-2-oxo-2H-chromene-3-carboxylate]
- IC50 [1]: 14.3 µM
- IC50 [2, 7]: 4.54 µM
- IC50 [3]: 11.1 µM
- IC50 (A549 (lung carcinoma)): 12.8 µM
- IC50 [4, 8]: 38.4 µM

Structure (SMILES): COC(=O)c1cc2cc(/C=C/C(=O)c3cc(OC)c(OC)c(OC)c3)cc(C(C)(C)C)c2oc1=O [Example S010-2003, (E)-methyl 8-tert-butyl-2-oxo-6-(3-oxo-3-(3,4,5-trimethoxyphenyl)prop-1-enyl)-2H-chromene-3-carboxylate]
- IC50 [1]: 8.3 µM
- IC50 [2, 7]: 4.99 µM
- IC50 [3]: 13.3 µM
- IC50 (A549 (lung carcinoma)): 11.1 µM
- IC50 [4, 8]: > 150 µM
- melting point: 145 to 146 °C

Structure (SMILES): CCC(C)c1cc(/C=C/C(=O)c2cc(OC)c(OC)c(OC)c2)cc2cc(C(=O)OC)c(=O)oc12 (centres unmarked) [Example S010-2001, (E)-methyl 8-sec-butyl-2-oxo-6-(3-oxo-3-(3,4,5-trimethoxyphenyl)prop-1-enyl)-2H-chromene-3-carboxylate]
- IC50 [1]: 3.1 µM
- IC50 [2, 7]: 2.56 µM
- IC50 [3]: 10.2 µM
- IC50 (A549 (lung carcinoma)): 3.68 µM
- IC50 [4, 8]: > 150 µM
- melting point: 138 to 139 °C

Structure (SMILES): CCC(C)c1cc(/C=C/C(=O)c2ccc(C)cc2)cc2cc(C(=O)N(CC)CC)c(=O)oc12 (centres unmarked) [Example S010-1996, (E)-8-sec-butyl-N,N-diethyl-2-oxo-6-(3-oxo-3-p-tolylprop-1-enyl)-2H-chromene-3-carboxamide]
- IC50 [1]: 3.55 µM
- IC50 [2, 7]: 3.12 µM
- IC50 [3]: < 7.01 µM
- IC50 (A549 (lung carcinoma)): 3.77 µM
- IC50 [4, 8]: > 150 µM
- melting point: 146 to 147 °C

Structure (SMILES): CCOC(=O)c1cc2cc(C=CC(=O)c3ccccc3)cc(C(C)CC)c2oc1=O (centres unmarked) [Example S009-0132, Ethyl 8-sec-butyl-2-oxo-6-(3-oxo-3-phenylprop-1-enyl)-2H-chromene-3-carboxylate]
- IC50 [1]: 10.5 µM
- IC50 [2, 7]: 8.12 µM
- IC50 [3]: 88.1 µM
- IC50 (A549 (lung carcinoma)): 12.9 µM
- IC50 [4, 8]: > 150 µM
- melting point: 155 to 156 °C

Structure (SMILES): COc1cccc2c1C(=O)c1c(O)c3c(c(O)c1C2=O)C[C@@](O)(C(=O)CO)C[C@@H]3O[C@H]1C[C@H](N)[C@H](O)[C@H](C)O1 [Doxorubicin, reference compound]
- IC50 [1]: 0.22 µM
- IC50 [2, 7]: 0.82 µM
- IC50 [3]: 0.61 µM
- IC50 (A549 (lung carcinoma)): 0.52 µM
- RTV (relative tumor volume) ([5]; day 1): 1
- T/C (tumor growth inhibition index) ([5]; day 1): 1
- RTV (relative tumor volume) ([5]; day 5): 0.69
- T/C (tumor growth inhibition index) ([5]; day 5): 0.53
- RTV (relative tumor volume) ([5]; day 9): 0.72
- T/C (tumor growth inhibition index) ([5]; day 9): 0.44
- RTV (relative tumor volume) ([5]; day 12): 0.92
- T/C (tumor growth inhibition index) ([5]; day 12): 0.47
- RTV (relative tumor volume) ([5]; day 15): 1.39
- T/C (tumor growth inhibition index) ([5]; day 15): 0.43
- RTV (relative tumor volume) ([5]; day 19): 1.65
- T/C (tumor growth inhibition index) ([5]; day 19): 0.45
- RTV (relative tumor volume) ([5]; day 22): 3.52
- T/C (tumor growth inhibition index) ([5]; day 22): 0.68
- RTV (relative tumor volume) ([5]; day 25): 3.84
- T/C (tumor growth inhibition index) ([5]; day 25): 0.62
- RTV (relative tumor volume) ([5]; day 29): 4.60
- T/C (tumor growth inhibition index) ([5]; day 29): 0.63
- RTV (relative tumor volume) ([5]; day 33): 4.69
- T/C (tumor growth inhibition index) ([5]; day 33): 0.47
- T/C (tumor growth inhibition index) ([5]; day 37): 0.58
- T/C (tumor growth inhibition index) ([5]; day 41): 0.49
- T/C (tumor growth inhibition index) ([5]; day 44): 0.43
- T/C (tumor growth inhibition index) ([5]; day 51): 0.43
- Average Animal weight ([6]; day 1): 20.7 grams
- Average Animal weight ([6]; day 5): 20.9 grams
- Average Animal weight ([6]; day 9): 20.6 grams
- Average Animal weight ([6]; day 12): 20.3 grams
- Average Animal weight ([6]; day 15): 19.6 grams
- Average Animal weight ([6]; day 19): 18.3 grams
- Average Animal weight ([6]; day 22): 19.7 grams
- Average Animal weight ([6]; day 25): 19.9 grams
- Average Animal weight ([6]; day 29): 20.4 grams
- Average Animal weight ([6]; day 33): 20.6 grams
- Average Animal weight ([6]; day 37): 24.8 grams
- Average Animal weight ([6]; day 41): 21.8 grams
- Average Animal weight ([6]; day 44): 22.1 grams
- Average Animal weight ([6]; day 51): 21.2 grams

Structure (SMILES): CCN(CC)C(=O)c1cc2cc(/C=C/C(=O)c3ccc(C)cc3)cc(C(C)(C)C)c2oc1=O [Example S010-1992, (E)-8-tert-butyl-N,N-diethyl-2-oxo-6-(3-oxo-3-p-tolylprop-1-enyl)-2H-chromene-3-carboxamide]
- IC50 [1]: 2.02 µM
- IC50 [2, 7]: 1.53 µM
- IC50 [3]: < 7.01 µM
- IC50 (A549 (lung carcinoma)): 1.5 µM
- IC50 [4, 8]: > 150 µM
- melting point: 170 to 171 °C

Structure (SMILES): CCC(C)c1cc(/C=C/C(=O)c2ccc(C)cc2)cc(C=O)c1O (centres unmarked) [Example S008-0392, (E)-3-sec-butyl-2-hydroxy-5-(3-oxo-3-p-tolylprop-1-enyl)benzaldehyde]
- IC50 [2, 9]: 10.2 µM
- IC50 [4, 10]: 129 µM

Structure (SMILES): Cc1ccc(C(=O)/C=C/c2cc(C(C)(C)C)c3oc(=O)c(C(=O)O)cc3c2)cc1 [Example-9, (E)-8-tert-butyl-2-oxo-6-(3-oxo-3-p-tolylprop-1-enyl)-2H-chromene-3-carboxylic Acid]
- melting point: 185 to 186 °C

Structure (SMILES): CCOC(=O)c1cc2cc(/C=C/C(=O)c3cc(OC)c(OC)c(OC)c3)cc(C(C)CC)c2oc1=O (centres unmarked) [Example S010-2000, (E)-ethyl 8-sec-butyl-2-oxo-6-(3-oxo-3-(3,4,5-trimethoxyphenyl)prop-1-enyl)-2H-chromene-3-carboxylate]
- IC50 [1]: 9.36 µM
- IC50 [2, 7]: 5.72 µM
- IC50 [3]: 11.5 µM
- IC50 (A549 (lung carcinoma)): 11.6 µM
- IC50 [4, 8]: > 150 µM
- melting point: 128 to 129 °C
